Reference: ChEMBL document CHEMBL1201862, “PubChem BioAssay data set” (2004)
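Where inhibition never reached the appropriate level, the endpoint shown equals the highest concentration tested. Otherwise, values were interpolated linearly from a five-concentration, 48-hour dose response in 96-well plates. At the GI50, growth is halved.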 Active and inactive are the calls of the source. Rule as the data show it: active = GI50 up to about 1.1 µM and inactive = higher.

Assays:
Test in all cases: DTP human tumour cell line panel, 48 h
HCC 2998 = tested on: HCC 2998
SK-MEL-28 = tested on: SK-MEL-28
786-0 = tested on: 786-0
UO-31 = tested on: UO-31
Malme-3M = tested on: Malme-3M
UACC-62 = tested on: UACC-62
DU-145 = tested on: DU-145
MCF7 = tested on: MCF7
OVCAR-3 = tested on: OVCAR-3
HT-29 = tested on: HT-29
HL-60 = tested on: HL-60
NCI-H226 = tested on: NCI-H226
SF-539 = tested on: SF-539
LOX IMVI = tested on: LOX IMVI
SK-MEL-2 = tested on: SK-MEL-2

Measured: GI50

COc1ccc(C2Oc3c(cccc3-c3c(-c4ccc(O)cc4)oc4cc(O)cc(O)c4c3=O)C(=O)C2O)cc1O (centres undefined)
inactive: HCC 2998 > 100 µM | SK-MEL-28 > 100 µM | 786-0 > 100 µM | UO-31 > 100 µM | Malme-3M > 100 µM | UACC-62 > 100 µM | DU-145 > 100 µM | MCF7 > 100 µM | OVCAR-3 > 100 µM | HT-29 > 100 µM | HL-60 > 100 µM | NCI-H226 > 100 µM

O=C1/C(=C/C=C/c2ccccc2)CCC1CNc1ccc(Br)cc1 (centres undefined)
inactive: SF-539 > 100 µM | HCC 2998 78 µM | SK-MEL-28 > 100 µM | 786-0 82.2 µM | UO-31 48.4 µM | LOX IMVI > 100 µM | UACC-62 6.92 µM | DU-145 40.2 µM | MCF7 21 µM | OVCAR-3 > 100 µM | HT-29 > 100 µM | HL-60 17.1 µM | NCI-H226 > 100 µM
active: Malme-3M 0.106 µM

Nc1nc(O)c2nc(CNc3ccc(C(=O)NC(CCC(=O)O)C(=O)O)cc3)cnc2n1 (centres undefined)
inactive: SF-539 > 100 µM | HCC 2998 > 100 µM | SK-MEL-2 > 100 µM | SK-MEL-28 > 100 µM | 786-0 > 100 µM | UO-31 > 100 µM | Malme-3M > 100 µM | LOX IMVI > 100 µM | UACC-62 > 100 µM | MCF7 > 100 µM | OVCAR-3 > 100 µM | HT-29 > 100 µM | NCI-H226 > 100 µM

CC1=C(C#N)C(=C(C#N)C#N)OC1(C)Cc1ccccc1 (centres undefined)
inactive: SF-539 64.7 µM | HCC 2998 29.5 µM | SK-MEL-2 36.7 µM | SK-MEL-28 49.9 µM | 786-0 41.7 µM | UO-31 18.7 µM | LOX IMVI 23.4 µM | UACC-62 20.6 µM | DU-145 37 µM | MCF7 38.2 µM | OVCAR-3 14.6 µM | HT-29 32.7 µM | NCI-H226 31.2 µM

CSc1nc(O)c(C#N)c(-c2ccc(Cl)cc2)n1
inactive: SF-539 > 100 µM | HCC 2998 > 100 µM | SK-MEL-2 > 100 µM | SK-MEL-28 > 100 µM | 786-0 > 100 µM | UO-31 36.5 µM | UACC-62 73.6 µM | DU-145 > 100 µM | MCF7 > 100 µM | OVCAR-3 > 100 µM | HT-29 > 100 µM | HL-60 35.5 µM | NCI-H226 > 100 µM

CN(C)c1nc2oc(-c3ccccc3)c(-c3ccccc3)c2c2nnnn12
inactive: SF-539 > 100 µM | HCC 2998 > 100 µM | SK-MEL-28 > 100 µM | 786-0 > 100 µM | UO-31 > 100 µM | LOX IMVI > 100 µM | UACC-62 > 100 µM | DU-145 > 100 µM | MCF7 > 100 µM | HT-29 > 100 µM | HL-60 19.8 µM | NCI-H226 > 100 µM

Cc1n[nH]c(C(F)(F)F)c1/N=N/N1CCOCC1
inactive: SF-539 14.2 µM | HCC 2998 1.53 µM | SK-MEL-2 13.1 µM | SK-MEL-28 14.7 µM | 786-0 2.63 µM | UO-31 2.4 µM | Malme-3M 14.9 µM | LOX IMVI 1.97 µM | UACC-62 11 µM | DU-145 4.59 µM | MCF7 3.78 µM | OVCAR-3 7.21 µM | HT-29 3.24 µM | NCI-H226 8.53 µM

Cc1cc(C(O)CNC(C)CCn2cnc3c2c(=O)n(C)c(=O)n3C)ccc1O (centres undefined)
inactive: SF-539 > 100 µM | SK-MEL-2 > 100 µM | SK-MEL-28 > 100 µM | 786-0 > 100 µM | UO-31 > 100 µM | Malme-3M > 100 µM | LOX IMVI > 100 µM | UACC-62 > 100 µM | DU-145 > 100 µM | MCF7 > 100 µM | OVCAR-3 > 100 µM | HT-29 > 100 µM | NCI-H226 > 100 µM
